The target in experiment [1] is Gamma-aminobutyric acid receptor subunit alpha-6 (Homo sapiens, UniProt Q16445).
Experiment [2] concerns the target T1, Gamma-aminobutyric acid receptor subunit alpha-1 (Homo sapiens, UniProt P14867).
T1 sequence (P14867 whole entry): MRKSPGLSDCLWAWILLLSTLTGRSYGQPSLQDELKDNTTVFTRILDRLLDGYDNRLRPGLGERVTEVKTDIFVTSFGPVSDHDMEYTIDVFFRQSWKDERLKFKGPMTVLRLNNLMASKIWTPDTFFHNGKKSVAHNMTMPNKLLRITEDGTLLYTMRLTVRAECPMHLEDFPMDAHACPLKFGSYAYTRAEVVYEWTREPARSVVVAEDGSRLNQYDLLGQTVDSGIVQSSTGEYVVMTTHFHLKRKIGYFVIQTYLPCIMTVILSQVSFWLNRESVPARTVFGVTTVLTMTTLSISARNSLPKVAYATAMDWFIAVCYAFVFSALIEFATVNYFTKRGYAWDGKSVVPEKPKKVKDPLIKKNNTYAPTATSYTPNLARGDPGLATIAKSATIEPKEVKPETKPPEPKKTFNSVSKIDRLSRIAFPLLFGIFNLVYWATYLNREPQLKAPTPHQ

Sequence of Gamma-aminobutyric acid receptor subunit alpha-6 (Q16445 whole entry): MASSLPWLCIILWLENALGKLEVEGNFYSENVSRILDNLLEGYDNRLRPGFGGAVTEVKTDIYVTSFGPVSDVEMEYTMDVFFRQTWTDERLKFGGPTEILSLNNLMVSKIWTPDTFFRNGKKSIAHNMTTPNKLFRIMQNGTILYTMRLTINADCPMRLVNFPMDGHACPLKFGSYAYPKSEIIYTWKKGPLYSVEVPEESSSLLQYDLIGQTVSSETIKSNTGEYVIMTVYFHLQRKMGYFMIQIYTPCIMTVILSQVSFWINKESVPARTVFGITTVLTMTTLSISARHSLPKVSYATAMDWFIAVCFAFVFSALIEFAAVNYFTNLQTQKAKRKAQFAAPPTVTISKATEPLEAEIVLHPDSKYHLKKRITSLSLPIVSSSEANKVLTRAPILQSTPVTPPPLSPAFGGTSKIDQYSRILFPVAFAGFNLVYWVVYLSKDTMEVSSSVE

In general, Ki refers to the equilibrium dissociation constant of an inhibitor or competing ligand from its target. High values mean weaker binding, low ones tighter binding. On to `CC(C)(C)OC(=O)c1ncn2c1C1CCCN1C(=O)c1c(Br)cccc1-2` (stereo not drawn) [8-Bromo-7-oxo-3b,4,5,6-tetrahydro-7H-2,6a,11b-triaza-benzo[g]cyclopenta[e]azulene-3-carboxylic acid tert-butyl ester], for which affinity in experiment [1] was put at a Ki of 12.7 nM.
In the case of `COC(=O)c1cc2c(cn1)[nH]c1ccccc12`, the values for the Ki in experiment [2] and in experiment [1] were 1 nM and 2050 nM, respectively.
`CCOC(=O)c1ncn2c1CN(C)C(=O)c1cc(N=[N+]=[N-])ccc1-2` [RO-154513] registered a Ki in experiment [2] of 2.6 nM.
The compound `Cc1nnc2n1-c1ccc(Cl)cc1C(c1ccccc1Cl)=NC2` [Halcion] showed a Ki in experiment [1] above 10000 nM.
Turning to `Cc1nnc2ccc(-c3cccc(C(F)(F)F)c3)nn12`, the Ki is 89.5 nM in experiment [2] and above 10000 nM in experiment [1].
The matching figures for `CC(C)c1nc(-c2ncn3c2CN(C)C(=O)c2c(Cl)cccc2-3)no1` [FG 8205]: 0.68 nM and 227 nM.
As for `CN1C(=O)CN=C(c2ccccc2)c2cc(Cl)ccc21`, the Ki in experiment [1] is above 10000 nM.
Turning to `CCc1c(C(=O)OC)ncc2[nH]c3cc(OC)c(OC)cc3c12` [NSC_104999], the Ki in experiment [2] came out at 11.2 nM; in experiment [1], 134 nM.
In experiment [1], `Cc1ccc(-c2nc3ccc(C)cn3c2CC(=O)N(C)C)cc1` [Ambien] had a Ki above 10000 nM.
